Laboratory results from patent US5206233A, “Substituted thiazepines as central nervous system agents” (Warner-Lambert Company, priority 1991, dated 1993).
Counter-ions that a name gives are not always drawn.

How the values were obtained:
[1] = biological target: sigma receptor; test: 3-PPP binding (inhibition of (+)-[3H]-3-PPP, a sigma ligand, binding); settings: inhibition of (+)-[3H]-3-PPP binding, method of Largent et al
[2] = test system: locomotor activity in mice; test: inhibition of locomotor activity in mice; type: in vivo; settings: Mus musculus, IP
Procedure: (§1) The compounds of Formula I are valuable sigma ligands. […] Additionally, the compounds of Formula I were tested for their ability to inhibit locomotor activity in mice according to the assay described by McLean, J. R., et al, Pharmacology, Biochemistry and Behavior 8:97-99 (1978); for their ability to inhibit contractions of electrically stimulated guinea pig ileum according to the method of Campbell, B. G., et al, Journal of Neuroscience 9 3380-3384 (1989) and Bass, P., et al, Journal of Pharmacology and Experimental Therapeutics 186:183-198 (1973). These tests further support the antipsychotic activity of the compounds of Formula I. The above test methods are incorporated herein by reference. The data in the table show the activity of representative compounds of Formula I.

[3] = test system: guinea pig ileum; test: inhibition of contraction of electrically stimulated guinea pig ileum; settings: Cavia porcellus, read-out: Inhibition of Contraction of Electrical Stimulation Guinea Pig Ileum IC50
Procedure: as §1

[4] = test system: sigma receptor; settings: known antipsychotic agents; literature; cited from earlier work

Row | SMILES | IC50 [1] [nM] | IC50 [3] [nM] | ED50 [2] [mg/kg] | interaction with the sigma receptor (in words) [4]
1 | COc1ccc(C2CCN(C)CCS2)cc1 (stereo not drawn) [Example 2, Hexahydro-7-(4-methoxyphenyl)-4-methyl-1,4-thiazepine, hydrochloride] | 16.5 | – | – | –
2 | CCN1CCSC(c2ccc(OC)cc2)CC1 (stereo not drawn) [Example 3, Hexahydro-7-(4-methoxyphenyl)-4-ethyl-1,4-thiazepine] | 6.22 | – | – | –
3 | O=C(CCCN1CCC(O)(c2ccc(Cl)cc2)CC1)c1ccc(F)cc1 [haloperidol] | – | – | – | interact with the sigma receptor
4 | CCN1CCC[C@H]1CNC(=O)c1c(OC)ccc(Br)c1OC [remoxapride] | – | – | – | interact with the sigma receptor
5 | C[C@@H]1CN(CCCn2c3ccccc3c3ccccc32)C[C@H](C)N1 [rimcazole] | – | – | – | interact with the sigma receptor
6 | O=C1CC2(CCCC2)CC(=O)N1CCCCN1CCN(c2nsc3ccccc23)CC1 [tiospirone] | – | – | – | interact with the sigma receptor

More lines, main results first:

Row | IC50 [1] [nM] | IC50 [3] [nM] | SMILES | ED50 [2] [mg/kg] | interaction with the sigma receptor (in words) [4]
7 | 1.62 | – | COc1ccc(C2CCN(C(C)C)CCS2)cc1 (stereo not drawn) [Example 4, Hexahydro-7-(4-methoxyphenyl)-4-isopropyl-1,4-thiazepine, hydrochloride] | – | –
8 | 121 | – | CN1CCSC(c2ccc(Cl)cc2)CC1 (stereo not drawn) [Example 6, Hexahydro-7-(4-chlorophenyl)-4-methyl-1,4-thiazepine, hydrochloride] | – | –
9 | 21.3 | – | CCCN1CCSC(c2ccc(Cl)cc2)CC1 (stereo not drawn) [Example 10, Hexahydro-7-(4-chlorophenyl)-4-propyl-1,4-thiazepine] | – | –
10 | 1.32 | 7300 | COc1ccc(C2CCN(CCCCc3ccncc3)CCS2)cc1 (stereo not drawn) [Example 12, Hexahydro-7-(4-methoxyphenyl)-4-[4-(4-pyridinyl)butyl]-1,4-thiazepine] | 13.9 | –
11 | 9.2 | – | COc1ccc(C2CCN(CCCC(=O)c3cccnc3)CCS2)cc1 (stereo not drawn) [Example 13, 1-(3-Pyridinyl)-7-(4-methoxyphenyl)-4-(tetrahydro-1,4-thiazepin-4(2H)-yl)-1-butanone, dihydrochloride] | – | –
12 | 6.39 | 13100 | Cl.c1ccc(C2CCN(CCCCc3ccncc3)CCS2)cc1 (stereo not drawn) [Example 14, Hexahydro-7-(phenyl)-4-[4-(4-pyridinyl)butyl]-1,4-thiazepine, hydrochloride] | 13.1 | –
13 | 2.5 | 4000 | c1ccc(C2CCN(CCCCc3cccnc3)CCS2)cc1 (stereo not drawn) [Example 15, Hexahydro-7-(phenyl)-4-[4-(3-pyridinyl)butyl]-1,4-thiazepine] | 17.9 | –
14 | 2.62 | – | Clc1ccc(C2CCN(CCCCc3ccncc3)CCS2)cc1 (stereo not drawn) [Example 16, Hexahydro-7-(4-chlorophenyl)-4-[4-(4-pyridinyl)butyl]-1,4-thiazepine] | 19 | –
